Data taken from US10919943B2, “Mutant proteins enabling agrochemical control of plant gene expression” (The Regents of the University of California, priority 2016, dated 2021).
Marks after values point to notes of the source that are not given here.

Legend:
[1] = system: 35S::GFP-cyt-HAB1* and 35S::nuc-PYR1*^-MANDI; test: Mandipropamid control of protein nuclear localization, transient co-expression, confocal microscopy; type: in vivo, N. benthamiana; details: 50 μM mandipropamid, 24 hours; FIG. 13
Text: To test this idea, we created a nuclear localized version of PYR1*^-MANDI (SEQ ID NO:32) and a cytoplasmically localized GFP-HAB1*(SEQ ID NO:33), co-expressed the two components in N. benthamiana, and subsequently examined the localization of GFP-HAB1* in response to mandipropamid using confocal microscopy. To accomplish this, we cloned PYR1*^-MANDI into the yeast two hybrid vector pAD, generating a GAL4 activation domain fusion to PYR1*^-MANDI. The GAL4 activation domain present in pAD contains a synthetic SV40 nuclear localization signal (NLS) at its N-terminus. […]
To characterize these components, 35S::GFP-cyt-HAB1* and 35S::nuc-PYR1*^-MANDI were transiently co-expressed in N. benthamiana, as described above, and plants treated with a mock or mandipropamid solution (FIG. 13). […] The leaf tissue was scanned manually by epi-fluorescence to identify patches of GFP^+ cells and then observed by spinning disk confocal microscopy, collecting ˜10 micron deep sections that spanned the entire epidermal cell layer. […] Fluorescence imaging was done using a custom built spinning disk system (Solamere Technology, Inc) with a Yokagawa W1 spinning disk (Yokagawa), EM-CCD camera (Hamamatsu 9100c) and a Nikon Eclipse TE (Nikon) inverted stand. […]

[2] = Phosphatase activity of recombinant GST-HAB1 proteins (4-methylumbeliferyl phosphate); type: biochemical; details: 1 μg protein, percent control (GST-HAB1); FIG. 7
Text: In the presence of ABA, wild type PYR1 binds to HAB1 and docks into its active site, which inhibits its enzymatic activity by blocking access of substrates. To characterize the orthogonal PYR1^! and HAB1^! interaction biochemically, we produced recombinant forms of each protein in E. coli, along with the wild type form, and tested the wild type and orthogonal mutant for their ability to inhibit HAB1 and HAB1^! activities in vitro. We cloned PYR1^! into pET28 to generate 6×-His tagged receptor and cloned HAB1^! into pGEX-4T-1 to create a GST-fusion protein. The previously constructed (S.-Y. Park et al., 2009) wild type 6×-His-PYR1 and GST-HAB1 constructs were used for producing recombinant wild type proteins. The 6×-His-tagged receptors and GST-tagged PP2Cs were expressed and purified as previously described. […] The plates were read using a Victor 2 plate reader (PerkinElmer) (355 nm excitation, 460 nm emission) and assays run in triplicate. The PP2C activity values reported are expressed as percent control values, which were calculated by including the carrier solvent (1% DMSO) and the specific receptor assayed, but no ligand. […]
To characterize HAB1^!-3 and HAB1* in vitro, we cloned them into pGEX-4T-1 to create GST-fusion proteins. […] The PP2C activity values reported are expressed as percent control (GST-HAB1) from triplicate measurements.

Row | Molecule | localization of GFP-cyt-HAB1* [1] | catalytic activity in vitro [2]
1 | C#CCOc1ccc(CCNC(=O)C(OCC#C)c2ccc(Cl)cc2)cc1OC (centres unmarked) [mandipropamid] | predominantly nuclear localization pattern | 
2 | HAB1*: catalytically inactive orthogonal pentuple HAB1 mutant (protein, listed as Arabidopsis thaliana) MTPAVAMTLSLAANTMCESSPVEITQLKNVTDAADLLSDSENQSFCNGGTECTMEDVSELEEVGEQDLLKTLSDTRSGSSNVFDEDDVLSVVEDNSAVISEGLLVVDAGSELSLSNTAMEIDNGRVLATAIIVGESSIEQVPTAEVLIAGVNQDTNTSEVVIRLPDENSNHLVKGRSVYELDCIPLWGTVSIQGNASEMEAAFAVSPHFLKLPIKMLMGDHEGMSPSLTHLTGHFFGVYDGHGGHKVADYCRDRLHFALAEEIERIKDELCKRNTGEGRQVQWDKVFTSCFLTVDGEIEGKIGRAVVGSSDKVLEAVADETVGSTAVVALVCSSHIVVSNCGDSRAVLFRGKEAMPLSVDHKPDREDEYARIENAGGKVIQWQGARVFGRLAMSRSIGDRYLKPYVIPEPEVTFMPRSREDECLILASDGLWDVMNNQEVCEIARRRILMWHKKNGAPPLAERGKGIDPACQAAADYLSMLALQKGSKDNISIIVIDLKAQAKFKTRT |  | Neither HAB1^!-3 or HAB1* display detectable catalytic activity
